Laboratory results: patent US20200188388A1, “METHODS AND COMPOSITIONS FOR PO[…] DRUGS AND REDUCING THEIR SIDE EFFECTS” (RVX THERAPEUTICS LTD., priority 2016, published 2020)

Test system: Wistar rats
Test: Rotenone-induced PD: severe catalepsy on inclined grid
Assay type: in vivo, rat
Conditions: for Severe catalepsy (% of group): 45 min before rotenone 2.3 mg/kg, immobilization on inclined grid above 40 seconds; for Severe catalepsy, Day 12: oral daily 19 days, 45 min before rotenone 2.3 mg/kg IP, levodopa given with benserazide 4:1, control 42, rat dose mg/kg by row (L levodopa, P phenylephrine, M memantine): r12 M2.5, r13 M5, r14 P0.3, r15 L10, r16 L20, r17 L5+P0.3+M1, r18 L10+P0.3+M1; for Severe catalepsy, Day 19: control 58, doses as E38
Text: Rotenone is a specific inhibitor of mitochondrial complex 1, which causes oxidative stress and apoptotic death of dopaminergic and cholinergic neurons in the striatum, substantia nigra and cerebellum. Damage to these neurons causes a decrease in dopamine and acetylcholine levels in the striatum, extrapyramidal disorders (catalepsy, impaired coordination of movements) and oligokinesia typical for PD, as well as ataxia, limb dystonia and mortality characteristic of PSP. Rotenone is used to create a model of PD and PSP in Wistar rats by intraperitoneal introduction of rotenone in a toxic dose of 2.3 mg/kg (Jason R. Cannon et al., Neurobiology of Disease, 2009, Vol. 34, pages 279-290).
Rotenone was dissolved in mixture of DMSO and Miglyol 812N at a ratio of 2:98 at concentration of 2.3 mg/ml. Preparation: 230 mg sample of rotenone in vials was dissolved in 2 ml of DMSO. The solution was poured into a jar with 100 ml. Vials are rinsed twice with 5 ml of Miglyol, washings attached to the main solution and stirred. To this solution was added 88 ml of Miglyol and mixed again. The resulting solution was divided into 3 doses. The solution was stored at −10° C. Each animal was administered 0.2 ml of a solution of rotenone: a dose of 0.46 mg per animal weighing 200±20 g, i.e. 2.3 mg/kg. The solution of rotenone was injected IP one time a day for 19 days.
Anti-parkinsonian effect of therapy in rats with rotenone-induced PD was estimated according to elimination of extrapyramidal disorders (catalepsy) and oligokinesia (rapid decreased amplitude and velocity of repeated movements) in the “open field” test. The neuro-protective effect of therapy was evaluated by the elimination of ataxia limb dystonia and mortality in rats with rotenone-induced PSP. Hyperkinetic side action (hyper-locomotion) was evaluated by increased horizontal and vertical activity in the open field at the 10th and 18th day of the experiment, calculated in % compared to the first day of the experiment.
The number of animals in the control and experimental groups ranged from 6 to 8.
Levodopa was administered in combination with benserazide (peripheral dopa-decarboxylase inhibitor) at a ratio of 4:1 to reduce the side effects of levodopa, associated with the stimulation of peripheral dopamine receptors (Alam M. et al., Behav. Brain Res., 2004, Vol. 153 (2), pages 439-446). Levodopa with benserazide were dissolved in 1 ml of DW and administered orally in the volume of 1 ml. […] The mixture was administered orally in a volume of 1 ml. Anti-parkinsonian effect in the experimental groups of rats with rotenone has been evaluated by eliminating catalepsy and oligokinesia.
Catalepsy in rats is determined by the time of immobilization of the animal, placed on a large grid predisposed at an angle of 45°. Maximum catalepsy in rats is recorded in the case of their complete immobilization on grid at 120 seconds for observation. The value of catalepsy is evaluated in points: 3 points—immobilization duration from 80 seconds to 120, 2 points—immobilization duration from 40 to 70, 1 point—immobilization duration from 20 to 35, 0 points—the immobilization of less than 20 seconds. Catalepsy was followed in rats daily, 30 minutes before administration of rotenone and 180 minutes after administration of rotenone. For each experimental group, on a daily basis, throughout the period of observation number of rats with severe catalepsy (2-3 points) was determined in % of the total number of rats in group. To assess the anti-cataleptic effects of therapy, on 12th and 19th day of experiment, reduction in the number of rats with severe catalepsy (2-3 points) in % was determined compared to control treated with distilled water.
Anti-parkinsonian effect of therapy in rats with rotenone-induced parkinsonism was estimated according to elimination of extrapyramidal disorders (catalepsy) and oligokinesia in the “open field” test. […]

Row | Compound | Severe catalepsy (% of group) (Day 12, memantine 5 mg/kg oral) | Severe catalepsy (% of group) (Day 12, memantine […] oral) | Severe catalepsy (% of group) (Day 19, memantine 5 mg/kg oral) | Severe catalepsy (% of group) (Day 19, memantine […] oral) | Severe catalepsy, Day 12 (memantine 2.5 mg/kg) | Severe catalepsy, Day 12 (memantine 5 mg/kg) | Severe catalepsy (% of group) (Day 12, levodopa 10 mg/kg oral) | Severe catalepsy (% of group) (Day 12, levodopa 20 mg/kg oral) | Severe catalepsy (% of group) (Day 19, levodopa 10 mg/kg oral) | Severe catalepsy (% of group) (Day 19, levodopa 20 mg/kg oral) | Severe catalepsy, Day 19 (levodopa 10 mg/kg) | Severe catalepsy, Day 19 (levodopa 20 mg/kg)
1 | CC12CC3CC(C)(C1)CC(N)(C3)C2 [Memantine, memantine] | 17 % of group | 33 % of group | 17 % of group | 50 % of group | 33 % of group | 17 % of group |  |  |  |  |  | 
2 | N[C@@H](Cc1ccc(O)c(O)c1)C(=O)O [Levodopa, L-3,4-dihydroxyphenylalanine] |  |  |  |  |  |  | 28 % of group | 12 % of group | 42 % of group | 24 % of group | 42 % of group | 24 % of group
